# ± gives the expanded uncertainty stated by the source.
# Settings: 101.33 kPa, Liquid, Photoacoustic measurements
thermal diffusivity (298.15 K),thermal diffusivity (308.15 K),thermal diffusivity (318.15 K),thermal diffusivity (328.15 K),thermal diffusivity (338.15 K),Structure (SMILES)
9.84e-08 ± 3.9e-09 m2/s,9.73e-08 ± 3.9e-09 m2/s,9.68e-08 ± 3.9e-09 m2/s,9.49e-08 ± 3.8e-09 m2/s,9.42e-08 ± 3.8e-09 m2/s,"OCCO [1,2-ethanediol]"
1.49e-07 ± 6e-09 m2/s,1.53e-07 ± 6e-09 m2/s,1.56e-07 ± 6e-09 m2/s,1.59e-07 ± 6e-09 m2/s,1.61e-07 ± 6e-09 m2/s,O [water]
